Measurements taken from patent US12668600B2 (Kumquat Biosciences Inc., priority 2023, dated 2026).
pIC50: −log10 of the molar value.

Key:
Type in all cases: biochemical
KRAS G12S = target: T1, KRAS G12S (Homo sapiens, UniProt P01116, G12S); assay: HTRF KRAS-SOS1 interaction assay, KRAS G12S; conditions: binned ≤2 μM / >2 μM, read-out: Inhibition of KRAS G12S (IC50)
T1 construct: made in house; host or cells: E. coli, e.g. BL21 (DE3)
In short: (§1)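 GST-KRAS + anti-GST-Eu; His-hSOS1 + anti-6His-XL665; cpd in DMSO, duplicate, 10–0.01 μM; ~10 min incubation; HTRF ex 337/em 620, 665 nm; IC50 fitted on 665/620 ratio.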

KRAS G12V = target: T2, KRAS G12V (Homo sapiens, UniProt P01116, G12V); assay: HTRF KRAS-SOS1 interaction assay, KRAS G12V; conditions: binned ≤2 μM / >2 μM, read-out: Inhibition of KRAS G12V (IC50)
T2 construct: made in house; host or cells: E. coli, e.g. BL21 (DE3)
In short: as §1

KRAS G12D = target: T3, KRAS G12D (Homo sapiens, UniProt P01116, G12D); assay: HTRF KRAS-SOS1 interaction assay, KRAS G12D; conditions: binned ≤2 μM / >2 μM, read-out: Inhibition of KRAS G12D (IC50)
T3 construct: made in house; host or cells: E. coli, e.g. BL21 (DE3)
In short: as §1

KRAS WT = target: T4, KRAS WT (Homo sapiens, UniProt P01116); assay: HTRF KRAS-SOS1 interaction assay, wildtype KRAS; conditions: binned ≤2 μM / >2 μM, read-out: Inhibition of KRAS WT (IC50)
T4 construct: made in house; host or cells: E. coli, e.g. BL21 (DE3)
In short: as §1

T3 sequence (P01116 1-188 isoform P01116-2 G12D): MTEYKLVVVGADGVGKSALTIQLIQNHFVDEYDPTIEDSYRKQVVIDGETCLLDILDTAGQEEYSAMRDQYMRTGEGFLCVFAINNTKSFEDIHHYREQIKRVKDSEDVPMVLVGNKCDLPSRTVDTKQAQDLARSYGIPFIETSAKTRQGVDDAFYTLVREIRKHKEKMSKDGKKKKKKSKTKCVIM
T1 sequence (P01116 1-188 isoform P01116-2 G12S): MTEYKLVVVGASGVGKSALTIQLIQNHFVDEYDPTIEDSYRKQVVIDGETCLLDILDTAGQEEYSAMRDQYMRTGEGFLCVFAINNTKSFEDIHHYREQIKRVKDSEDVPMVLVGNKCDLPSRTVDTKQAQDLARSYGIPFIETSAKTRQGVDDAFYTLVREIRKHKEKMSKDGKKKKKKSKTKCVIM
T2 sequence (P01116 1-188 isoform P01116-2 G12V): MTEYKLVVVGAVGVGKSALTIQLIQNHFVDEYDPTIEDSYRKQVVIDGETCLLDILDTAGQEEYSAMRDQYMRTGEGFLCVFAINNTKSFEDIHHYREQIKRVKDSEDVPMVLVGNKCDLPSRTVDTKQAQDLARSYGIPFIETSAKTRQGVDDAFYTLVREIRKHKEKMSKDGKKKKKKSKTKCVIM
T4 sequence (P01116 1-188 isoform P01116-2): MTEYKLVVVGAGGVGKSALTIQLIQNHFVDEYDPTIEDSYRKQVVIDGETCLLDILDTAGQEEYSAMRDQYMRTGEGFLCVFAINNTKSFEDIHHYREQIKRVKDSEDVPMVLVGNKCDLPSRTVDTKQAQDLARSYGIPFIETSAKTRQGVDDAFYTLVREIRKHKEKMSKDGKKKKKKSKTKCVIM

Row | Compound | pIC50 (KRAS G12S) | pIC50 (KRAS G12V) | pIC50 (KRAS G12D) | pIC50 (KRAS WT)
1 | CC(c1cccnc1N)N1c2nc(OC[C@@]34CCCN3C[C@H](F)C4)nc3c(F)c(-c4ccc(F)c5sc(N)c(C#N)c45)c(Cl)c(c23)OC[C@@H]1C(F)F (mixture of isomers) [Compound 790, 2-amino-4-((5R)-4-(1-(2-aminopyridin-3-yl)ethyl)-8-chloro-5-(difluoromethyl)-10-fluoro-2-(((2R,7aS)-2-fluorotetrahydro-1H-pyrrolizin-7a(5H)-yl)methoxy)-5,6-dihydro-4H-[1,4]oxazepino[5,6,7-de]quinazolin-9-yl)-7-fluorobenzo[b]thiophene-3-carbonitrile] | ≥ 5.70 | ≥ 5.70 | ≥ 5.70 | ≥ 5.70
2 | C[C@H](c1cccnc1N)N1CCOc2c(Cl)c(-c3ccc(F)c4sc(N)c(C#N)c34)c(F)c3nc(OC[C@@]45CCCN4C[C@H](F)C5)nc1c23 [Compound 850, 2-amino-4-(4-(1-(2-aminopyridin-3-yl)ethyl)-8-chloro-10-fluoro-2-(((2R,7aS)-2-fluorotetrahydro-1H-pyrrolizin-7a (5H)-yl)methoxy)-5,6-dihydro-4H-[1,4]oxazepino[5,6,7-de]quinazolin-9-yl)-7-fluorobenzo[b]thiophene-3-carbonitrile] | ≥ 5.70 | ≥ 5.70 | ≥ 5.70 | ≥ 5.70
3 | N#Cc1c(N)sc2c(F)ccc(-c3c(C(F)(F)F)c4c5c(nc(OC[C@@]67CCCN6C[C@H](F)C7)nc5c3F)N([C@H](CC3CCC3)c3cccnc3N)CCO4)c12 (single isomer, unassigned) [Compound 893] | ≥ 5.70 | ≥ 5.70 | ≥ 5.70 | ≥ 5.70
4 | CCON=C(C)CC[C@H](c1cccnc1N)N1CCOc2c(C(F)(F)F)c(-c3ccc(F)c4sc(N)c(C#N)c34)c(F)c3nc(OC[C@@]45CCCN4C[C@H](F)C5)nc1c23 (mixture of isomers) [Compound 789, 2-amino-4-(4-((R)-1-(2-aminopyridin-3-yl)-4-(ethoxyimino)pentyl)-10-fluoro-2-(((2R,7aS)-2-fluorotetrahydro-1H-pyrrolizin-7a(5H)-yl)methoxy)-8-(trifluoromethyl)-5,6-dihydro-4H-[1,4]oxazepino[5,6,7-de]quinazolin-9-yl)-7-fluorobenzo[b]thiophene-3-carbonitrile] | ≥ 5.70 | ≥ 5.70 | ≥ 5.70 | ≥ 5.70
5 | C=CC(F)(F)[C@@H](c1cccnc1N)N1CCOc2c(Cl)c(-c3ccc(F)c4sc(N)c(C#N)c34)c(F)c3nc(OC[C@@]45CCCN4C[C@H](F)C5)nc1c23 [Compound 834, 2-amino-4-(4-((R)-1-(2-aminopyridin-3-yl)-2,2-difluorobut-3-en-1-yl)-8-chloro-10-fluoro-2-(((2R,7aS)-2-fluorotetrahydro-1H-pyrrolizin-7a(5H)-yl)methoxy)-5,6-dihydro-4H-[1,4]oxazepino[5,6,7-de]quinazolin-9-yl)-7-fluorobenzo[b]thiophene-3-carbonitrile] | ≥ 5.70 | ≥ 5.70 | < 5.70 | ≥ 5.70
6 | C=CC[C@H](c1cccnc1N)N1C[C@H](C)Oc2nc(-c3cc(N)c(F)c(C)c3C(F)(F)F)c(F)c3nc(OC[C@@]45CCCN4C[C@H](F)C5)nc1c23 (single isomer, unassigned) [Compound 746] | ≥ 5.70 | ≥ 5.70 | ≥ 5.70 | ≥ 5.70
7 | C[C@H](c1cccnc1N)N1CCOc2c(C(F)(F)F)c(-c3ccc(F)c4sc(N)c(C#N)c34)c(F)c3nc(OCC4(CN5[C@H](C)COC[C@@H]5C)CC4)nc1c23 (single isomer, unassigned) [Compound 719] | < 5.70 | < 5.70 | < 5.70 | < 5.70
8 | C[C@H](c1cccnc1N)N1CCOc2nc(-c3ccc(F)c4sc(N)c(C#N)c34)c(F)c3nc(OC[C@@H]4CCCN4C)nc1c23 (single isomer, unassigned) [Compound 651] | ≥ 5.70 | ≥ 5.70 | ≥ 5.70 | ≥ 5.70
9 | N#Cc1c(N)sc2c(F)ccc(-c3c(C(F)(F)F)c4c5c(nc(OC[C@@]67CCCN6C[C@H](F)C7)nc5c3F)N([C@H](CCCN3CCCCC3)c3cccnc3N)CCO4)c12 (single isomer, unassigned) [Compound 704] | ≥ 5.70 | ≥ 5.70 | ≥ 5.70 | ≥ 5.70

The remaining lines, values ahead:

Row | pIC50 (KRAS G12S) | pIC50 (KRAS G12V) | pIC50 (KRAS G12D) | pIC50 (KRAS WT) | Compound
10 | ≥ 5.70 | ≥ 5.70 | ≥ 5.70 | ≥ 5.70 | C[C@H](c1cc(C2CC2)cnc1N)N1CCOc2c(C(F)(F)F)c(-c3ccc(F)c4sc(N)c(C#N)c34)c(F)c3nc(OC[C@@]45CCCN4C[C@H](F)C5)nc1c23 [Compound 654, 2-amino-4-(4-((R)-1-(2-amino-5-cyclopropylpyridin-3-yl)ethyl)-10-fluoro-2-(((2R,7aS)-2-fluorotetrahydro-1H-pyrrolizin-7a(5H)-yl)methoxy)-8-(trifluoromethyl)-5,6-dihydro-4H-[1,4]oxazepino[5,6,7-de]quinazolin-9-yl)-7-fluorobenzo[b]thiophene-3-carbonitrile]
11 | ≥ 5.70 | ≥ 5.70 | ≥ 5.70 | ≥ 5.70 | C=CC(F)(F)[C@H](c1cccnc1N)N1CCOc2c(Cl)c(-c3ccc(F)c4sc(N)c(C#N)c34)c(F)c3nc(OC[C@@]45CCCN4C[C@H](F)C5)nc1c23 [Compound 639, 2-amino-4-(4-((S)-1-(2-aminopyridin-3-yl)-2,2-difluorobut-3-en-1-yl)-8-chloro-10-fluoro-2-(((2R,7aS)-2-fluorotetrahydro-1H-pyrrolizin-7a(5H)-yl)methoxy)-5,6-dihydro-4H-[1,4]oxazepino[5,6,7-de]quinazolin-9-yl)-7-fluorobenzo[b]thiophene-3-carbonitrile]
12 | ≥ 5.70 | ≥ 5.70 | ≥ 5.70 | ≥ 5.70 | CC(=O)c1c(F)ccc2cc(O)cc(-c3nc4c5c(nc(OC[C@@]67CCCN6C[C@H](F)C7)nc5c3F)N(C(C)c3cccnc3N)CCO4)c12 (mixture of isomers) [Compound 744]
13 | ≥ 5.70 | ≥ 5.70 | ≥ 5.70 | ≥ 5.70 | C=C1CN2CC(=C)CC2(COc2nc3c4c(c(C(F)(F)F)c(-c5ccc(F)c6sc(N)c(C#N)c56)c(F)c4n2)OCCN3[C@H](C)c2cncnc2N)C1 (single isomer, unassigned) [Compound 707]
14 | ≥ 5.70 | ≥ 5.70 | ≥ 5.70 | ≥ 5.70 | C[C@H](c1cccnc1N)N1CCOc2c(Cl)c(-c3ccc(F)c4sc(N)c(C#N)c34)c(F)c3nc(OC[C@@]45CCCN4CC(CP(C)(C)=O)C5)nc1c23 (mixture of isomers) [Compound 839, 2-amino-4-(4-((R)-1-(2-aminopyridin-3-yl)ethyl)-8-chloro-2-(((7aS)-2-((dimethylphosphoryl)methyl)tetrahydro-1H-pyrrolizin-7a(5H)-yl)methoxy)-10-fluoro-5,6-dihydro-4H-[1,4]oxazepino[5,6,7-de]quinazolin-9-yl)-7-fluorobenzo[b]thiophene-3-carbonitrile]
15 | ≥ 5.70 | ≥ 5.70 | ≥ 5.70 | ≥ 5.70 | C[C@H](c1cc(Cl)cnc1N)N1CCOc2c(C(F)(F)F)c(-c3ccc(F)c4sc(N)c(C#N)c34)c(F)c3nc(OC[C@@]45CCCN4C[C@@]4(CC4(F)F)C5)nc1c23 [Compound 713, 2-amino-4-(4-((R)-1-(2-amino-5-chloropyridin-3-yl)ethyl)-2-(((1S,7a′S)-2,2-difluorodihydro-1′H,3′H-spiro[cyclopropane-1,2′-pyrrolizin]-7a′(5′H)-yl)methoxy)-10-fluoro-8-(trifluoromethyl)-5,6-dihydro-4H-[1,4]oxazepino[5,6,7-de]quinazolin-9-yl)-7-fluorobenzo[b]thiophene-3-carbonitrile]
16 | ≥ 5.70 | ≥ 5.70 | ≥ 5.70 | ≥ 5.70 | C[C@H](c1cccnc1N)N1CCOc2c(Cl)c(-c3ccc(F)c4sc(N)c(C#N)c34)c(F)c3nc(OC[C@@]45CCCN4CC(=NOCC(F)(F)F)C5)nc1c23 (mixture of isomers) [Compound 917, 2-amino-4-(4-((R)-1-(2-aminopyridin-3-yl)ethyl)-8-chloro-10-fluoro-2-(((S)-2-((2,2,2-trifluoroethoxy)imino)tetrahydro-1H-pyrrolizin-7a(5H)-yl)methoxy)-5,6-dihydro-4H-[1,4]oxazepino[5,6,7-de]quinazolin-9-yl)-7-fluorobenzo[b]thiophene-3-carbonitrile]
17 | < 5.70 | < 5.70 | < 5.70 | < 5.70 | C[C@@H]1CN(CC2(COc3nc4c5c(c(C(F)(F)F)c(-c6ccc(F)c7sc(N)c(C#N)c67)c(F)c5n3)OCCN4[C@H](C)c3cccnc3N)CC2)CCO1 (single isomer, unassigned) [Compound 826]
18 | ≥ 5.70 | ≥ 5.70 | ≥ 5.70 | ≥ 5.70 | N#Cc1c(N)sc2c(F)ccc(-c3c(C(F)(F)F)c4c5c(nc(OC[C@@]67CCCN6C[C@H](F)C7)nc5c3F)N([C@H](CCC3COCCO3)c3cccnc3N)CCO4)c12 (mixture of isomers) [Compound 648, 2-amino-4-(4-((1R)-1-(2-aminopyridin-3-yl)-3-(1,4-dioxan-2-yl)propyl)-10-fluoro-2-(((2R,7aS)-2-fluorotetrahydro-1H-pyrrolizin-7a(5H)-yl)methoxy)-8-(trifluoromethyl)-5,6-dihydro-4H-[1,4]oxazepino[5,6,7-de]quinazolin-9-yl)-7-fluorobenzo[b]thiophene-3-carbonitrile]
